Values of other authors in patent publication US11331275B2 (Humanwell PuraCap Pharmaceuticals (Wuhan) Co., Ltd, priority 2017, dated 2022).

C=C(c1ccc(C(=O)O)cc1)c1cc2c(cc1C)C(C)(C)CCC2(C)C [bexarotene, 4-[1-(5,6,7,8-tetrahydro-3,5,5,8,8-pentamethyl-2-naphthyl)ethenyl] benzoic acid]
solubility in acetonitrile (acetonitrile): soluble
solubility in dimethylsulfoxide (dimethylsulfoxide): soluble
solubility in methanol (methanol): slightly soluble
solubility in water (water): almost insoluble
